K data for three molecules are collected here from ChEMBL document CHEMBL3994620, “Synthesis and antioxidant activity of a procyanidin B3 analogue” (Bioorg Med Chem Lett, 2017).

This assay is described as follows: Antioxidant activity assessed as second order rate constant for galvinoxyl radical scavenging activity by UV-vis spectrophotometry. Format: functional.

Regarding `Oc1cc(O)c2c(c1)O[C@H](c1ccc(O)c(O)c1)[C@@H](O)C2`, the K was found to be 26 M⁻¹ s⁻¹.

Turning to `Oc1cc(O)c2c(c1)O[C@H](c1ccc(O)c(O)c1)[C@@H](O)[C@@H]2c1c(O)cc(O)c2c1O[C@H](c1ccc(O)c(O)c1)[C@@H](O)C2`, the K is 1 ×10² /M/s.

Turning to `CC1(C)O[C@H]2Cc3c(O)cc(O)c([C@@H]4c5c(O)cc(O)cc5O[C@H](c5ccc(O)c(O)c5)[C@H]4O)c3O[C@@H]2c2cc(O)c(O)cc21`, the K turned out to be 1.89 ×10² /M/s.
